Broadly, the IC50 is the point on the concentration scale where inhibition reaches its midpoint. Usually EC50 stands for the concentration needed to bring the measured effect to its halfway point. The inhibition is the relative decrease from the control value, in per cent.

This is an account of results in patent US9873693B2 (Sunesis Pharmaceuticals, Inc., priority 2006, dated 2018).

The first test deals with phosphorylated PDK1 (Homo sapiens (Human), UniProt O15530). In words: PDK1 kinase assay (coupled PDK1/AKT/FAM-crosstide, IMAP). The format is biochemical. Particulars: 0.5 nM phosphorylated PDK1, 24 μM ATP; read-out: Inhibition of phospo-PDK1 in vitro IC50.
Sequence of phosphorylated PDK1 (O15530 51-360): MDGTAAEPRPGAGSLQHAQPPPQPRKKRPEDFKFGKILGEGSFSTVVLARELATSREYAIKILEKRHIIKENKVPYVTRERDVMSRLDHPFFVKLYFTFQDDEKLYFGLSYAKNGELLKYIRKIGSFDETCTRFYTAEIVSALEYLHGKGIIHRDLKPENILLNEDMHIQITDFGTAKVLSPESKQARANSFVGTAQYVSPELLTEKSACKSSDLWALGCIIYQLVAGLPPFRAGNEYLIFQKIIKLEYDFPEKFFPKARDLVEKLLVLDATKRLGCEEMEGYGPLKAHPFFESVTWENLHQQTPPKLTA
On to `O=C(NCc1cccc(-c2c[nH]c3ncc(CO)cc23)c1)c1cccn(Cc2ccc(F)c(F)c2)c1=O` [Cpd 8], for which the IC50 is less than 500 nM.
The same measure, in the same setting: the value for `O=C(O)COc1cc(CNC(=O)c2cccn(Cc3ccc(F)c(F)c3)c2=O)cc(-c2c[nH]c3ncccc23)c1` [Cpd 61] was less than 500 nM; that for `O=C(Nc1cccc(C(=O)c2c[nH]c3ncccc23)c1)c1cccn(Cc2ccc(F)c(F)c2)c1=O` [Cpd 127] was less than 500 nM; that for `O=C(NCc1cc(-c2c[nH]c3ncccc23)ncn1)c1cccn(Cc2ccc(F)c(F)c2)c1=O` [Cpd 149] was less than 500 nM.
Take `O=C(N[C@@H](COc1ccc2[nH]c(=O)[nH]c2c1)C(=O)O)c1cccn(Cc2cc(F)c(F)c(F)c2)c1=O` [Cpd 154]: the IC50 is less than 500 nM.
For `O=C(NCCCc1ccc2[nH]c(=O)[nH]c2c1)c1cccn(Cc2ccc(F)c(F)c2)c1=O` [Cpd 161], the IC50 is less than 500 nM.
As to `O=C(N[C@@H](COc1cc2[nH]c(=O)[nH]c2cn1)c1ccccc1)c1cccn(Cc2cc(F)c(F)c(F)c2)c1=O` [Cpd 176], the IC50 is less than 500 nM.
The same measure, in the same setting: the value for `O=C1Cc2ccc(OCCNC(=O)c3cccn(Cc4cc(F)c(F)c(F)c4)c3=O)cc2N1` [Cpd 207] was less than 500 nM; that for `Cn1ccnc1/C=C1/C(=O)Nc2cc(/C=C/CNC(=O)c3cccn(Cc4cc(F)c(F)c(F)c4)c3=O)ccc21` [Cpd 210] was less than 500 nM; that for `CN1CCC(=C2C(=O)Nc3cc(/C=C/CNC(=O)c4cccn(Cc5cc(F)c(F)c(F)c5)c4=O)ccc32)CC1` [Cpd 211] was less than 500 nM.
`Nc1ncc(-c2cccc(CNC(=O)c3cccn(Cc4ccc(F)c(F)c4)c3=O)c2)cn1` [Cpd 215]: the 50% inhibitory concentration (IC50) is greater than 10000 nM.
Same read-out and setting: the result for `O=C(Nc1cccc(C(=O)c2c[nH]c3ccccc23)c1)c1cccn(Cc2ccc(F)c(F)c2)c1=O` [Cpd 221] reads greater than 10000 nM.
Same read-out and setting: the result for `O=C(NCC1CCC(c2c[nH]c3ncccc23)CC1)c1cccn(Cc2ccc(F)c(F)c2)c1=O` (stereo not drawn) [Cpd 223] reads greater than 10000 nM.
With `NS(=O)(=O)c1ccccc1-c1cccc(CNC(=O)c2cccn(Cc3ccc(F)c(F)c3)c2=O)c1` [Cpd 226], the IC50 was greater than 10000 nM.
In the case of `NS(=O)(=O)c1cccc(-c2cccc(CNC(=O)c3cccn(Cc4ccc(F)c(F)c4)c3=O)c2)c1` [Cpd 227], the IC50 is greater than 10000 nM.
`NS(=O)(=O)c1ccc(-c2cccc(CNC(=O)c3cccn(Cc4ccc(F)c(F)c4)c3=O)c2)cc1` [Cpd 228]: the half-inhibitory concentration (IC50) was greater than 10000 nM.
With `O=C(Nc1cccc(C(=O)n2ccc3ncccc32)c1)c1cccn(Cc2ccc(F)c(F)c2)c1=O` [Cpd 229], the IC50 is greater than 10000 nM.
On the same count and under the same terms, the result for `O=C(c1cccn(Cc2ccc(F)c(F)c2)c1=O)N1CCN(C(=O)c2c[nH]c3ncccc23)CC1` [Cpd 233] reads greater than 10000 nM; that for `O=C(O)c1cnc2[nH]cc(-c3cccc(CNC(=O)c4cccn(-c5cccc(F)c5F)c4=O)c3)c2c1` [Cpd 238], less than 500 nM; that for `O=C(NCc1cccc(-c2c[nH]c3ncc(-c4nnn[nH]4)cc23)c1)c1cccn(Cc2ccc(F)c(F)c2)c1=O` [Cpd 246], less than 500 nM.

In another test the test system is phospho-akt (Thr308). In words: phospho-akt (Thr308) MSD ELISA in PC-3 cells. The format is cell-based. Particulars: Homo sapiens, PC-3, 2 h, PC-3 cells, 2 hours, no serum; read-out: Inhibition of P308 Akt in cells using MSD EC50. How it is done: PC-3 cells were harvested by trypsin and counted. Cells were plated in coated 96-well flat bottom plates (plate 15,000 cells/well in 100 ul growth media (10% FBS, 1× pen-strep) an place in an incubator overnight.
Subject inhibitors were stocked at 50 mM, then diluted to 30 mM (4.8 μl cpd plus […] DMSO) in 100% DMSO. Three-fold dilutions were performed from 30 mM stock. (4 μl into 8 ul 100% DMSO). Aliquots of 1.0 μl of inhibitor solution were transferred into SF Medium (using deep well block).
Control wells were prepared as follows. For DMSO high controls, 1.0 μl of 100% DMSO was added into 1.0 ml SF.
MSD plates were blocked for 1 hour by adding 150 μl of Blocking Solution (3% BSA) to each well. The MSD plates were washed 4× with TBST, and 50 μl lysates were transferred to MSD plate and place on plate shaker shake at 4 degrees O/N, light shaking (speed 3.5). The plate was washed 4× with TBST.
25 μl of Ab detection solution was added to each well. The plate was sealed and incubated 1 hr RT, light shaking (speed 3.5). The plate was washed 4 times with TBST. 150 μl of Read Buffer was added (5 mls 4×MSD Read Buffer+15 mls water). Finally the plate was read immediately on the MSD plate reader.
`O=C(NCc1ccc(OCCN2CCOCC2)c(-c2c[nH]c3ncccc23)c1)c1cccn(Cc2ccc(F)c(F)c2)c1=O`: the EC50 fell in the range of 1 to 5 µM.
Regarding `NC(=O)COc1cc(CNC(=O)c2cccn(Cc3ccc(F)c(F)c3)c2=O)cc(-c2c[nH]c3ncccc23)c1` [Cpd 62], the EC50 is less than 1 µM.
The same measure, in the same setting: the value for `CN(C)C(=O)COc1cc(CNC(=O)c2cccn(Cc3ccc(F)c(F)c3)c2=O)cc(-c2c[nH]c3ncccc23)c1` [Cpd 63] was less than 1 µM.
For `Nc1ncnc2ccc(-c3cccc(CNC(=O)c4cccn(Cc5ccc(F)c(F)c5)c4=O)c3)cc12` [Cpd 64], the EC50 is greater than 5 µM.
Same read-out and setting: the result for `CC(C)Oc1cc(CNC(=O)c2cccn(Cc3cc(F)c(F)c(F)c3)c2=O)cc(-c2c[nH]c3ncccc23)c1` [Cpd 65] reads less than 1 µM.
`O=C(Nc1ccnc2ccc(-c3c[nH]c4ncccc34)cc12)c1cccn(Cc2ccc(F)c(F)c2)c1=O` [Cpd 66]: the EC50 is less than 1 µM.
`O=C(NCc1cc(OC2CCNCC2)cc(-c2c[nH]c3ncccc23)c1)c1cccn(Cc2ccc(F)c(F)c2)c1=O` [Cpd 67]: the EC50 is less than 1 µM.
`O=C(NCc1cc(OCC(O)CO)cc(-c2c[nH]c3ncccc23)c1)c1cccn(Cc2ccc(F)c(F)c2)c1=O` (stereo not drawn) [Cpd 68]: the 50% effective concentration (EC50) was 1 to 5 µM.
Same read-out and setting: the value for `O=C(NCc1cccc(-c2c[nH]c3ncc(C(=O)N4CCOCC4)cc23)c1)c1cccn(Cc2ccc(F)c(F)c2)c1=O` [Cpd 69] was less than 1 µM; that for `Nc1ncnc2ccc(-c3ccc(CNC(=O)c4cccn(Cc5ccc(F)c(F)c5)c4=O)s3)cc12` [Cpd 70] was less than 1 µM.
On to `O=C(NCc1cccc(-c2c[nH]c3nccc(F)c23)c1)c1cccn(Cc2ccc(F)c(F)c2)c1=O` [Cpd 74], for which the EC50 was in the range of 1 to 5 µM.
Same read-out and setting: the value for `O=C(NCc1cccc(-c2c[nH]c(C(=O)N3CCOCC3)c2)c1)c1cccn(Cc2ccc(F)c(F)c2)c1=O` [Cpd 76] was 1 to 5 µM; that for `O=C(NCc1ccc(O)c(-c2c[nH]c3ncccc23)c1)c1cccn(Cc2ccc(F)c(F)c2)c1=O` [Cpd 82] was 1 to 5 µM.
With `O=C(NCc1cc(OC2CCCCC2)cc(-c2c[nH]c3ncccc23)c1)c1cccn(Cc2ccc(F)c(F)c2)c1=O` [Cpd 84], the EC50 is greater than 5 µM.
With `O=C(NCc1cc(OC2CCCC2)cc(-c2c[nH]c3ncccc23)c1)c1cccn(Cc2ccc(F)c(F)c2)c1=O` [Cpd 85], the EC50 fell in the range of 1 to 5 µM.
On the same count and under the same terms, the value for `Cn1nc(NC(=O)c2cccn(Cc3ccc(F)c(F)c3)c2=O)c2cc(-c3c[nH]c4ncccc34)ccc21` [Cpd 87] was less than 1 µM; that for `CC(C)(C)OC(=O)N1CCC(Oc2cc(CNC(=O)c3cccn(Cc4ccc(F)c(F)c4)c3=O)cc(-c3c[nH]c4ncccc34)c2)CC1` [Cpd 88] was greater than 5 µM; that for `CS(=O)(=O)N1CCC(Oc2cc(CNC(=O)c3cccn(Cc4ccc(F)c(F)c4)c3=O)cc(-c3c[nH]c4ncccc34)c2)CC1` [Cpd 94] was less than 1 µM.
`CCn1nc(NC(=O)c2cccn(Cc3ccc(F)c(F)c3)c2=O)c2cc(-c3c[nH]c4ncccc34)ccc21` [Cpd 95]: the EC50 lay within 1 to 5 µM.
Take `O=C(NCc1coc(-c2c[nH]c3ncccc23)n1)c1cccn(Cc2ccc(F)c(F)c2)c1=O` [Cpd 131]: the EC50 lay in the range of 1 to 5 µM.
Consider `O=C(NCc1noc(-c2c[nH]c3ncccc23)n1)c1cccn(Cc2cc(F)c(F)c(F)c2)c1=O` [Cpd 138], for which the concentration giving a half-maximal response (EC50) lay in the range of 1 to 5 µM.
`CC(c1ccc(C(F)(F)F)cc1)n1cccc(C(=O)NCc2noc(-c3c[nH]c4ncccc34)n2)c1=O` (stereo not drawn) [Cpd 140]: the EC50 is 1 to 5 µM.
As for `O=C(NCc1cccc(-c2c[nH]c3ncccc23)c1)c1cccn(Cc2ccc(C(F)(F)F)cc2)c1=O` [Cpd 145], the 50% effective concentration (EC50) was greater than 5 µM.
`O=C(N[C@@H](COc1ccc2[nH]c(=O)[nH]c2c1)c1ccccc1Cl)c1cccn(Cc2cc(F)c(F)c(F)c2)c1=O` [Cpd 151]: the EC50 is less than 1 µM.
`C=C[C@H](COc1ccc2[nH]c(=O)[nH]c2c1)NC(=O)c1cccn(Cc2cc(F)c(F)c(F)c2)c1=O` [Cpd 159]: the EC50 lay within 1 to 5 µM.
Consider `O=C(N[C@@H](COc1ccc2[nH]c(=O)[nH]c2c1)C1CC1)c1cccn(Cc2cc(F)c(F)c(F)c2)c1=O` [Cpd 168], for which the EC50 was 1 to 5 µM.
Turning to `O=C(NCCOc1ccc2[nH]c(=O)[nH]c2c1F)c1cccn(Cc2ccc(F)c(F)c2)c1=O` [Cpd 169], the EC50 lay within 1 to 5 µM.
Same read-out and setting: the value for `O=C(NC/C=C/c1ccc2[nH]c(=O)[nH]c2c1)c1cccn(Cc2cc(F)c(F)c(F)c2)c1=O` [Cpd 170] was 1 to 5 µM.
Consider `O=C(O)c1cc(-c2c[nH]c3ncccc23)cc(CNC(=O)c2cccn(Cc3ccc(F)c(F)c3)c2=O)n1` [Cpd 172], for which the EC50 was greater than 5 µM.
Take `C[C@H](COc1ccc2[nH]c(=O)[nH]c2c1)NC(=O)c1cccn(Cc2cc(F)c(F)c(F)c2)c1=O` [Cpd 173]: the EC50 was 1 to 5 µM.

Still in this test, the particulars now being: Homo sapiens, PC-3, 2 h, PC-3 cells, 2 hours, no serum; read-out: Reduction of Cellular Levels of Akt p308 By MSD ELISA (EC50 μM).
With `O=C(Nc1n[nH]c2ccc(-c3c[nH]c4ncccc34)cc12)c1cccn(Cc2ccc(F)c(F)c2)c1=O` [Cpd 42], the half-maximal effective concentration (EC50) lay in the range of 1 to 5 µM.
Regarding `O=C(NCc1cccc(-c2c[nH]c3ncc(-c4nnn[nH]4)cc23)c1)c1cccn(Cc2ccc(F)c(F)c2)c1=O` [Cpd 43], the EC50 was greater than 5 µM.
As to `O=C(NCc1coc(-c2c[nH]c3ncccc23)n1)c1cccn(Cc2ccc(F)c(F)c2)c1=O` [Cpd 131], the concentration for a half-maximal effect (EC50) fell in the range of 1 to 5 µM.
As to `O=C(NCc1noc(-c2c[nH]c3ncccc23)n1)c1cccn(Cc2cc(F)c(F)c(F)c2)c1=O` [Cpd 138], the EC50 fell in the range of 1 to 5 µM.
Still for that read-out and setting: the value for `CC(c1ccc(C(F)(F)F)cc1)n1cccc(C(=O)NCc2noc(-c3c[nH]c4ncccc34)n2)c1=O` (stereo not drawn) [Cpd 140] was 1 to 5 µM.
Consider `O=C(NCc1cccc(-c2c[nH]c3ncccc23)c1)c1cccn(Cc2ccc(C(F)(F)F)cc2)c1=O` [Cpd 145], for which the EC50 was in the range of 1 to 5 µM.

The same test, now with this note: Homo sapiens, PC-3, 2 h, read-out: Inhibition of P308 Akt in cells using MSD EC50.
Regarding `CN1CCC(Oc2cc(CNC(=O)c3cccn(Cc4ccc(F)c(F)c4)c3=O)cc(-c3c[nH]c4ncccc34)c2)CC1` [Cpd 86], the EC50 lay within 1 to 5 µM.
Still for that read-out and setting: the result for `O=C(NC(COc1ccc2[nH]c(=O)[nH]c2c1)c1cccnc1)c1cccn(Cc2cc(F)c(F)c(F)c2)c1=O` (stereo not drawn) [Cpd 163] reads 1 to 5 µM.

Staying with this test, now noted: Homo sapiens; PC-3 cells, at 1 μM; read-out: Percent Inhibition of phospho-Akt (308) By MSD ELISA.
In the case of `O=C(NCc1noc(-c2c[nH]c3ncccc23)n1)c1cccn(Cc2ccc(F)c(F)c2)c1=O` [Cpd 129], the inhibition at 1 µM was less than 25%.

Still in this test, the particulars now being: Homo sapiens; PC-3 cells, at 10 μM; read-out: Percent Inhibition of phospho-Akt (308) By MSD ELISA.
As for `O=C(NCc1noc(-c2c[nH]c3ncccc23)n1)c1cccn(Cc2ccc(F)c(F)c2)c1=O` [Cpd 129], the inhibition at 10 µM is less than 25%.
